Read-outs that look alike come from different tables or passages of the source. Marks after values point to notes of the source that are not given here.
How the values were obtained:
[1] = HCT15 tumor xenograft model, host response; format: in vivo, mouse
Protocol: (§1) Routine animal care and assurance of welfare were as described above.
(§2) Treatments for the efficacy studies were initiated 10 days following tumor cell implantation when tumors were approximately 300 mm^3. Compound IIa and SB-715992 were administered intravenously (i.v.) via the tail vein in a volume of 8 mL/kg at the doses indicated. Paclitaxel was administered intraperitoneally (i.p.) in a volume of 16 mL/kg at 30 mg/kg.
(§3) Tumor volume was calculated as (L×W2)/2. […] Data was analyzed as described above.

HCT15 tumor xenograft = HCT15 tumor xenograft model, tumor response; format: in vivo, mouse
Protocol: as §1
Human HCT15 colon carcinoma cells were obtained from the National Cancer Institute's DCTD Tumor Repository (catalog #NCI-502711, Rockville, Md.). HCT15 cells were grown in RPMI 1640 with 2 mM L-glutamine (Mediatech Inc., catalog #15-040-CV) supplemented with 10% fetal bovine serum (JRH Biosciences, catalog #12003-1000M). The cells were tested to be free of Mycoplasma sp. and murine viruses in the IMPACT1 PCR assay panel (RADIL, University of Missouri, Columbia, Mo.)
These cells were grown as adherent cultures, maintained at 37° C. in a humidified atmosphere containing 5% carbon dioxide. Cells were cultured for fewer than 10 passages prior to use. Cells were harvested at 95% confluency, and centrifuged at ˜800×g for 5 minutes at 4° C. and then resuspended in a 1:1 ratio of HBSS (Mediatech Inc., catalog #21-021-CV) plus Matrigel™ at a concentration of 50 million cells/mL for implantation subcutaneously (injection volume of 0.2 mL).
as §2, §3

HCT116 tumor xenograft = HCT116 tumor xenograft model, tumor response; format: in vivo, mouse
Protocol: The cell line HCT-116 has been widely used in the evaluation of mitotic inhibitors such as microtubule disruptors, mitotic kinase inhibitors and KSP inhibitors. […] Experiments were performed using outbred athymic nu/nu mice approximately 6-8 weeks old (Charles River Laboratories, Hollister, Calif.). […] Mice were housed 4-5 animals per cage in clear polycarbonate micro-isolator cages with a 12-hour light, 12-hour dark cycle at temperatures between 70-80 degrees Fahrenheit and 30-70% relative humidity. Food (Purina rodent chow pellets) and water were provided ad libitum. Mice were handled in accordance with Novartis ACUC regulations and guidelines and the ILAR Guide for the Care and Use of Laboratory Animals. Experiments were performed in an AAALAC accredited facility under an ACUC approved protocol.
Compound IIa (free base) and SB-715992 (ispinesib, a KSP inhibitor by Cytokinetics that is in clinical trials; as its free base) were formulated in 20% Captisol® for all the above doses for a dose volume of 8 mL/kg. Doses were adjusted to each animal's body weight.
Human HCT116 colon carcinoma cells were obtained from the National Cancer Institute's DCTD Tumor Repository (catalog #NCI-502568, Rockville, Md.) and tested to be free of Mycoplasma sp. and murine viruses in the IMPACT1 PCR assay panel (RADIL, University of Missouri, Columbia, Mo.). HCT116 cells were grown in RPMI 1640 with 2 mM L-glutamine (Mediatech Inc., catalog #15-040-CV) supplemented with 10% fetal bovine serum (JRH Biosciences, catalog #12003-1000M). These cells were grown as adherent cultures, maintained at 37° C. in a humidified atmosphere containing 5% carbon dioxide. Cells were cultured for fewer than 10 passages prior to use. Cells were harvested at 95% confluency, and centrifuged at ˜800×g for 5 minutes at 4° C. and then resuspended in a cold HBSS (Mediatech Inc., catalog #21-021-CV) at a concentration of 50 million cells/mL for implantation subcutaneously (injection volume of 0.1 mL).
Female nu/nu mice (Charles River, Hollister, Calif.) were injected subcutaneously in the right flank with 5 million HCT-116 tumor cells suspended in Hank's Balanced Salt Solution (HBSS) in a total volume of 0.1 mL/mouse. For the efficacy studies, mice were randomized 10 days post-implant. […] Tumor volume was calculated as (L×W2)/2. […] Percent treatment/control (T/C) values were calculated using the following formula: % T/C=100×ΔT/ΔC
All data were expressed as mean and SEM. Between-groups comparisons for final tumor measurements were performed using the one-way ANOVA pair-wise analysis. Significance was determined using Kruskal-Wallis one-way ANOVA on Ranks and Dunn's method for multiple pair-wise comparisons. Statistical analysis was carried out using SigmaStat (Systat Software Inc., San Jose, Calif.).

[2] = q4d × 3
Protocol: Experiments were performed using outbred athymic nu/nu mice (Charles River Laboratories) approximately 6-8 weeks old. Upon arrival, animals received a subcutaneous microchip implant (AVID, Folsom, La.) in the subscapular region for identification of individuals. Animals were allowed to acclimatize for 1 week before any experimental procedures began.
Compound IIa, compound IIc, compound IIa (shown below), and SB-715992 were formulated in a Captisol®-based formulation. Doses were administered intravenously (i.v.) and adjusted to each animal's body weight. Formulations were made once at the beginning of study and stored at room temperature. Clinical grade paclitaxel was purchased pre-mixed in a cremophor-based vehicle (Mayne Pharma, now Hospira, Lake Forest, Ill., catalog #NDC-6170334209) and diluted in sterile saline to provide a dose volume of 16 mL/kg for a 30 mg/kg dose administered intraperitoneally (i.p.)
For the efficacy studies, mice were enrolled with a mean tumor volume of approximately 300 mm^3. Tumor xenografts were measured in two dimensions (L and W) with digital calipers twice weekly from the start of dosing on Day 0. Tumor volume was calculated as (L×W^2)/2. Body weights were measured twice weekly and clinical observations were recorded daily. Tumor volume and body weights were captured and stored by StudyDirector software (StudyLog, South San Francisco, Calif.).

Cc1ccc(C(=O)N(CCCN)[C@@H](c2nc3cc(Cl)ccc3c(=O)n2Cc2ccccc2)C(C)C)cc1 [SB-715992, Ispinesib, reference compound]
Survival (alive/total) ([1]; 7.5 mg/kg, q4d × 3, i.v): 9/9 | Max. Δ body weight (Day) ([1]; 7.5 mg/kg, q4d × 3, i.v, D8): 0.6 ± 0.2 g | Max. Δ body weight (Day) (%) ([1]; 7.5 mg/kg, q4d × 3, i.v, D8): 2.6 ± 1.0% | Survival (alive/total) ([1]; 15 mg/kg, q4d × 3, i.v.): 9/9 | Max. Δ body weight (Day) ([1]; 15 mg/kg, q4d × 3, i.v, D10): -1.2 ± 0.4 g | Δ Tumor volume, Day 15 (HCT15 tumor xenograft; 7.5 mg/kg, q4d × 3, i.v): 647 ± 164 mm^3 | ΔT/ΔC, Day 15 (%) (HCT15 tumor xenograft; 7.5 mg/kg, q4d × 3, i.v): 87% | Δ Tumor volume, Day 15 (HCT15 tumor xenograft; 15 mg/kg, q4d × 3, i.v.): 491 ± 109 mm^3 | ΔT/ΔC, Day 15 (%) (HCT15 tumor xenograft; 15 mg/kg, q4d × 3, i.v.): 67% | T/C, Day 24 (%) (HCT116 tumor xenograft; 1.75 mg/kg, i.v., q4d × 3): 36% | Δ Tumor volume, Day 24 (HCT116 tumor xenograft; 1.75 mg/kg, i.v., q4d × 3): 395 ± 84 mm^3 | T/C, Day 17 (%) (HCT116 tumor xenograft; 3.5 mg/kg, i.v., q4d × 3): 5% | T/C, Day 24 (%) (HCT116 tumor xenograft; 3.5 mg/kg, i.v., q4d × 3): 15% | Δ Tumor volume, Day 17 (HCT116 tumor xenograft; 3.5 mg/kg, i.v., q4d × 3): 39 ± 4 mm^3 | Δ Tumor volume, Day 24 (HCT116 tumor xenograft; 3.5 mg/kg, i.v., q4d × 3): 165 ± 60 mm^3 | Max. % Regression (Day) (HCT116 tumor xenograft; 3.5 mg/kg, i.v., q4d × 3, D7): 13% | Max. % Regression (Day) (HCT116 tumor xenograft; 3.5 mg/kg, i.v., q4d × 3, D11): 10% | Δ Tumor volume, Day 17 (HCT116 tumor xenograft; 7.5 mg/kg, i.v., q4d × 3): −177 ± 55 mm^3 | Δ Tumor volume, Day 24 (HCT116 tumor xenograft; 7.5 mg/kg, i.v., q4d × 3): −145 ± 25 mm^3 | Max. % Regression (Day) (HCT116 tumor xenograft; 7.5 mg/kg, i.v., q4d × 3, D17): 65% | Max. % Regression (Day) (HCT116 tumor xenograft; 7.5 mg/kg, i.v., q4d × 3, D21): 65% | Δ Tumor volume, Day 17 (HCT116 tumor xenograft; 15 mg/kg, i.v., q4d × 3 (only first two doses given)): −205 ± 24 mm^3 | Max. % Regression (Day) (HCT116 tumor xenograft; 15 mg/kg, i.v., q4d × 3 (only first two doses given), D20): 73% | Survival (alive/total) ([2]; 15 mg/kg, i.v.): 9/9 | % Max. Δ body weight, (Day) ([2]; 15 mg/kg, i.v., D7): 4 (D7) % | Survival (alive/total) ([2]; Table 14 study, 15 mg/kg, i.v.): 9/9 | % Max. Δ body weight, (Day) ([2]; Table 14 study, 15 mg/kg, i.v., D4): −1 (D4) % | Survival (alive/total) ([2]; Table 15 study, 15 mg/kg, i.v.): 10/10 | % Max. Δ body weight, (Day) ([2]; Table 15 study, 15 mg/kg, i.v., D11): −3 (D11) %

CC(=O)O[C@H]1C(=O)[C@@]2(C)[C@H]([C@H](OC(=O)c3ccccc3)[C@]3(O)C[C@H](OC(=O)[C@H](O)[C@@H](NC(=O)c4ccccc4)c4ccccc4)C(C)=C1C3(C)C)[C@]1(OC(C)=O)CO[C@@H]1C[C@@H]2O [Paclitaxel, reference compound]
Survival (alive/total) ([1]; 30 mg/kg, Q4d × 3, i.p.): 9/9 | Δ Tumor volume, Day 15 (HCT15 tumor xenograft; 30 mg/kg, Q4d × 3, i.p.): 703 ± 198 mm^3 | ΔT/ΔC, Day 15 (%) (HCT15 tumor xenograft; 30 mg/kg, Q4d × 3, i.p.): 104% | Δ Tumor volume, Day 17 (HCT116 tumor xenograft; 30 mg/kg, i.p., q4d × 3): −80 ± 3 mm^3 | Max. % Regression (Day) (HCT116 tumor xenograft; 30 mg/kg, i.p., q4d × 3, D17): 31% | Survival (alive/total) ([2]; 30 mg/kg, i.p.): 9/9 | Survival (alive/total) ([2]; Table 14 study, 30 mg/kg, i.p.): 9/9 | Survival (alive/total) ([2]; Table 15 study, 30 mg/kg, i.p.): 10/10

CC(C)(C)[C@H](c1nc(-c2cc(F)ccc2F)cn1Cc1ccccc1)N(CC[C@H](N)CF)C(=O)CO [Compound IIa]
Survival (alive/total) ([1]; 1.25 mg/kg, q4d × 3, i.v): 9/9 | Survival (alive/total) ([1]; 2.5 mg/kg, q4d × 3, i.v): 9/9 | Survival (alive/total) ([1]; 4.0 mg/kg, q4d × 3, i.v): 9/9 | Δ Tumor volume, Day 15 (HCT15 tumor xenograft; 1.25 mg/kg, q4d × 3, i.v): 671 ± 172 mm^3 | ΔT/ΔC, Day 15 (%) (HCT15 tumor xenograft; 1.25 mg/kg, q4d × 3, i.v): 60% | Δ Tumor volume, Day 15 (HCT15 tumor xenograft; 2.5 mg/kg, q4d × 3, i.v): 735 ± 159 mm^3 | ΔT/ΔC, Day 15 (%) (HCT15 tumor xenograft; 2.5 mg/kg, q4d × 3, i.v): 65% | Δ Tumor volume, Day 15 (HCT15 tumor xenograft; 4.0 mg/kg, q4d × 3, i.v): 99 ± 78 mm^3 | ΔT/ΔC, Day 15 (%) (HCT15 tumor xenograft; 4.0 mg/kg, q4d × 3, i.v, listed as COMPOUND IIa): 26* % | ΔT/ΔC, Day 15 (%) (HCT15 tumor xenograft; 4.0 mg/kg, q4d × 3, i.v, listed as compound IIa): 26% | T/C, Day 24 (%) (HCT116 tumor xenograft; 0.125 mg/kg, i.v., q4d × 3): 81% | Δ Tumor volume, Day 24 (HCT116 tumor xenograft; 0.125 mg/kg, i.v., q4d × 3): 809 ± 193 mm^3 | anti-tumor effect (HCT116 tumor xenograft; 0.125 mg/kg, q4d×3): not significantly different from vehicle control | T/C, Day 24 (%) (HCT116 tumor xenograft; 0.25 mg/kg, i.v., q4d × 3): 35% | Δ Tumor volume, Day 24 (HCT116 tumor xenograft; 0.25 mg/kg, i.v., q4d × 3): 382 ± 120 mm^3 | T/C, Day 24 (%) (HCT116 tumor xenograft; 0.5 mg/kg, i.v., q4d × 3): 14% | Δ Tumor volume, Day 24 (HCT116 tumor xenograft; 0.5 mg/kg, i.v., q4d × 3): 155 ± 145 mm^3 | Max. % Regression (Day) (HCT116 tumor xenograft; 0.5 mg/kg, i.v., q4d × 3, D14): 8% | Δ Tumor volume, Day 24 (HCT116 tumor xenograft; 1 mg/kg, i.v., q4d × 3): −34 ± 36 mm^3 | Max. % Regression (Day) (HCT116 tumor xenograft; 1 mg/kg, i.v., q4d × 3, D17): 46% | Δ Tumor volume, Day 17 (HCT116 tumor xenograft; 1.25 mg/kg, i.v., q4d × 3): −173 ± 12 mm^3 | Max. % Regression (Day) (HCT116 tumor xenograft; 1.25 mg/kg, i.v., q4d × 3, D20): 66% | Δ Tumor volume, Day 24 (HCT116 tumor xenograft; 2 mg/kg, i.v., q4d × 3): −141 ± 48 mm^3 | Max. % Regression (Day) (HCT116 tumor xenograft; 2 mg/kg, i.v., q4d × 3, D21): 73% | Δ Tumor volume, Day 17 (HCT116 tumor xenograft; 2.5 mg/kg, i.v., q4d × 3): −208 ± 17 mm^3 | Max. % Regression (Day) (HCT116 tumor xenograft; 2.5 mg/kg, i.v., q4d × 3, D20): 82% | Δ Tumor volume, Day 17 (HCT116 tumor xenograft; 5 mg/kg, i.v., q4d × 3 (only first two doses given)): −196 ± 11 mm^3 | Max. % Regression (Day) (HCT116 tumor xenograft; 5 mg/kg, i.v., q4d × 3 (only first two doses given), D20): 73% | anti-tumor effect (HCT116 tumor xenograft; as low as 0.25 mg/kg, q4d×3, during the dosing interval): tumor stasis | Survival (alive/total) ([2]; 5 mg/kg, i.v.): 9/9 | % Max. Δ body weight, (Day) ([2]; 5 mg/kg, i.v., D11): −2 (D11) %
